Assay results taken from US7041785B1, “B1-bradykinin receptor antagonists and use thereof” (Université de Sherbrooke, priority 1996, dated 2006).
Non-standard residues stand in square brackets, D forms with d. Residues, ends and D or L forms follow the SMILES beside them. Tyr(3,5-I2) = N[C@@H](Cc1cc(I)c(O)c(I)c1)C(=O)O; Oic = O=C(O)[C@@H]1C[C@@H]2CCCC[C@@H]2N1; 2Nal = N[C@@H](Cc1ccc2ccccc2c1)C(=O)O; d2Nal = N[C@H](Cc1ccc2ccccc2c1)C(=O)O; Hyp = O=C(O)[C@@H]1C[C@@H](O)CN1; Tic = O=C(O)[C@@H]1Cc2ccccc2CN1; dTic = O=C(O)[C@H]1Cc2ccccc2CN1; 2Thi = N[C@@H](Cc1cccs1)C(=O)O; Ahx = NCCCCCC(=O)O; Sar = CNCC(=O)O

Key:
[1] = target: T1, B1 receptor (Oryctolagus cuniculus, UniProt P48748); test: cell-based; conditions: for Kb: Rb.A. pA2, apparent affinity as antagonist vs desArg9BK, antagonist applied 10 min before, Inactive = no detectable antagonistic effect at ≦ 10 μg/ml; for Rb.A. α^E: residual agonistic activity at 10 μg/mL in comparison with desArg9BK
T1 sequence (P48748 1-352): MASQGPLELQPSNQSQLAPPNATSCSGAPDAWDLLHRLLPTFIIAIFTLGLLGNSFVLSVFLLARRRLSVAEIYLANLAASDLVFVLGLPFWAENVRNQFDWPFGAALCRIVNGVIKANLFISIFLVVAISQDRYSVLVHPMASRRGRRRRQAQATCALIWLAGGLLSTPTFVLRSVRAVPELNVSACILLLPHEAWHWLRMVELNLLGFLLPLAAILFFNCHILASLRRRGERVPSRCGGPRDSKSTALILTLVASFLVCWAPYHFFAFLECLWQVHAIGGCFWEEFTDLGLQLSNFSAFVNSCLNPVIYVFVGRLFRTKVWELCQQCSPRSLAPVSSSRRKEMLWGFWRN
Method in brief: (§1)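 Isolated rabbit jugular vein (captopril 1 μmol/L), guinea pig ileum, endothelium-free rabbit aorta and human umbilical vein, in Krebs at 37 °C, with isometric tension recorded. Agonism was tested at 10 μg/mL.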

[2] = target: T2, B2 receptor (Cavia porcellus, UniProt O70526); test: cell-based; conditions: for G.P.I. pA2: vs BK, Inactive = no detectable antagonistic effect at ≦ 10 μg/ml, F.ag. full agonist, P.ag. partial agonist; for G.P.I. α^E: residual agonistic activity at 10 μg/mL in comparison with BK
T2 sequence (O70526 1-372): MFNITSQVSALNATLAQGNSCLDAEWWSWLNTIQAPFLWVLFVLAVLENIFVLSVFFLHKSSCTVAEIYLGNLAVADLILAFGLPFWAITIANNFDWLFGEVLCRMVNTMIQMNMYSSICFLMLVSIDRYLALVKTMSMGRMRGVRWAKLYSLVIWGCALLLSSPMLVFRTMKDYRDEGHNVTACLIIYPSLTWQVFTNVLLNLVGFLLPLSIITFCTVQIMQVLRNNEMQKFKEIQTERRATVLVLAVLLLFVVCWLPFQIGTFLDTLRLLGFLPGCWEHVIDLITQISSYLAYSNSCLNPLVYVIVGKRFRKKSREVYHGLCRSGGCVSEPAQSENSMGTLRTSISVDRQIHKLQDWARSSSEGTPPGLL
Method in brief: as §1

[3] = target: T3, B2 receptor (Oryctolagus cuniculus, UniProt Q28642); test: cell-based; conditions: for Rb.J.V. α^E: residual agonistic activity at 10 μg/mL in comparison with BK
T3 sequence (Q28642 1-367): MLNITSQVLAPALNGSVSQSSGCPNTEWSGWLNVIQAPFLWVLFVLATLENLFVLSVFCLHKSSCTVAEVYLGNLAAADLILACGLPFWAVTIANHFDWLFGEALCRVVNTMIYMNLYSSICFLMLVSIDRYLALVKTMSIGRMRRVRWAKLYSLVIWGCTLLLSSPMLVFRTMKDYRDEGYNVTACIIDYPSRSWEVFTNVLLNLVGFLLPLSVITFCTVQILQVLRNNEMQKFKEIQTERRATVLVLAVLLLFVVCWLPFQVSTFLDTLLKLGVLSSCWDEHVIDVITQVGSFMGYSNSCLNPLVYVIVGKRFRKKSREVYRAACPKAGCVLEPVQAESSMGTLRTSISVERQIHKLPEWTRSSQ
Method in brief: as §1

[4] = target: T4, human B2 receptor (Homo sapiens, UniProt P30411); test: Human umbilical vein bioassay in presence of Lys(Leu8)desArg9BK, B2 receptor; format: cell-based; conditions: vs BK, Lys(Leu8)desArg9BK 1 μmol/L present
T4 construct: Helical strips of HUV were prepared according to Gobeil et al; from tissue; host or cells: human umbilical vein helical strips
T4 sequence (P30411 1-391): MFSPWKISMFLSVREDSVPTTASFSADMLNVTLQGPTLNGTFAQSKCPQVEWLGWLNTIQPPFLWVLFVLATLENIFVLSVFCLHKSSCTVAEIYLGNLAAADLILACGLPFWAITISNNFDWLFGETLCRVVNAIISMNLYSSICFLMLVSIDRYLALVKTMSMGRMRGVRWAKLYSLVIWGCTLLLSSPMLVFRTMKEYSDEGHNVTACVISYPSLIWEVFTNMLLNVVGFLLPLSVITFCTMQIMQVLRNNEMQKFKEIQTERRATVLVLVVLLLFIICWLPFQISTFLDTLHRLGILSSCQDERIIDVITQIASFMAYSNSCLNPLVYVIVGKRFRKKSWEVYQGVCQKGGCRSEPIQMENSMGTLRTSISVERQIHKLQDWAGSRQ
Excerpt: Tissues were taken from New Zealand white rabbits (1.5–2.5 kg) and Dunken Hartley guinea pigs (250–350 g) of either sex, killed by stunning and exsanguination. Umbilical cords were taken from healthy women 22–40 years old after spontaneous delivery at term. The rabbit jugular vein (RbJV), the guinea pig ileum (GPI), two preparations containing B2 receptors, the rabbit aorta (RbA) (B1 receptor) and the human umbilical vein (HUV), a mixed preparation containing both B1 and B2 receptors^10, were used. Helical strips of RbJV treated with 1 μmol/L of captopril to avoid peptide degradation by the angiotensin-converting enzyme (ACE), alias kininase II were prepared according to Gaudreau et al.^11 Helical strips of RbA devoid of endothelium were prepared according to Furchgott and Bhadrakom^12. Longitudinal segments of GPI were prepared with the procedure described by Rang^13. Helical strips of HUV were prepared according to Gobeil et al.^10. The tissues were suspended in 10-ml organ baths containing warm (37EC), oxygenated (95% O2–5% CO2) Krebs solution of the following composition in mmol/L; NaCl: 118.1; KCl: 4.7; CaCl26H2O: 2.5; KH2PO4: 1.2; MgSO47H2O: 1.18; NaHCO3: 25.0 and D-Glucose: 5.5. The RbA and the HUV were stretched with an initial tension of 2 g, whereas the RbJV and the GPI were loaded with 0.5 g. Changes of tension produced by the various agents were measured with Grass isometric transducers (model FT 03C, Grass Instrument Co., Quincy, Mass.). […] Before testing the drugs, the tissues were allowed to equilibrate for 60–120 min during which time the tissues were repeatedly washed and the tension readjusted every 15 min.
At the beginning of each experiment, a submaximal dose of bradykinin (BK) (9 nmol/L), was applied repeatedly on the RbJV, the GPI or the HUV to ensure that tissues responded with stable contractions. […] A similar protocol was used for the HUV.
Repeated applications of a singl and double concentration of BK (on RbJV, GPI and HUV) and of desArg^9BK (RbA and HUV) were made in the absence and in presence of the various peptides to evaluate their apparent affinities as antagonists, in terms of pA2 (-log10 of the molar concentration of antagonist that reduces the effect of a double concentration of agonist to that of a single one)^14. The antagonists were applied 10 min before measuring the myotropic effects of either BK (the B2 receptor agonist) or desArg^9BK (the B1 receptor agonist). […] All kinin antagonists were initially applied to tissues at concentration of 10 μg/mL to measure their potential agonistic activities (α^E) in comparison with BK (in the B2 receptor preparations) or desArg^9BK (in the B1 receptor preparations).

## CC[C@H](C)[C@H](NC(=O)[C@@H]1Cc2ccccc2CN1C(=O)[C@H](CO)NC(=O)[C@H](Cc1ccccc1)NC(=O)CNC(=O)[C@@H]1CCCN1C(=O)[C@@H]1CCCN1C(=O)[C@H](CCCNC(=N)N)NC(=O)[C@H](N)CCCNC(=N)N)C(=O)O [Compound 14, D-Arg(L-Tic^7, Ile^8)desArg^9BK] (H-[dR]RPPGFS[Tic]I-OH; N-terminus and C-terminus assumed)
[1]
  Kb: > 9.12 µM
[2]
  G.P.I. pA2: Inactive
[3]
  Kb: 6.46 µM
[4]
  Human umbilical vein B2 receptor pA2: Inactive

## CC(=O)N[C@@H](CCCCN)C(=O)N[C@@H](CCCNC(=N)N)C(=O)N1CCC[C@H]1C(=O)N1CCC[C@H]1C(=O)NCC(=O)N[C@@H](Cc1ccccc1)C(=O)N[C@@H](CO)C(=O)N[C@H](Cc1ccc2ccccc2c1)C(=O)N[C@@H](CC(C)C)C(=O)O [Compound 18, AcLys(D-βNal^7, Leu^8)desArg^9BK] (Ac-KRPPGFS[d2Nal]L-OH; C-terminus assumed)
[1]
  Kb: 0.0123 µM
  Rb.A. α^E: 0
[2]
  G.P.I. α^E: 0
  G.P.I. pA2: Inactive
[3]
  Kb: > 8.71 µM
  Rb.J.V. α^E: 0
[4]
  Human umbilical vein B2 receptor pA2: Inactive

## CC[C@H](C)[C@H](NC(=O)[C@H](Cc1ccc2ccccc2c1)NC(=O)[C@H](CO)NC(=O)[C@H](Cc1ccccc1)NC(=O)CNC(=O)[C@@H]1CCCN1C(=O)[C@@H]1CCCN1C(=O)[C@H](CCCNC(=N)N)NC(=O)[C@H](CCCCN)NC(C)=O)C(=O)O [Compound 20, AcLys(L-βNal^7, Ile^8)desArg^9BK] (Ac-KRPPGFS[2Nal]I-OH; C-terminus assumed)
[1]
  Kb: 5.01 µM
  Rb.A. α^E: 0
[2]
  G.P.I. α^E: 0.06
  G.P.I. pA2: Inactive
[3]
  Kb: 7.76 µM
  Rb.J.V. α^E: 0
[4]
  Human umbilical vein B2 receptor pA2: Inactive

## CC(C)C[C@H](NC(=O)[C@@H](Cc1ccc2ccccc2c1)NC(=O)[C@H](CO)NC(=O)[C@H](Cc1ccccc1)NC(=O)CNC(=O)[C@@H]1CCCN1C(=O)[C@@H]1CCCN1C(=O)[C@H](CCCNC(=N)N)NC(=O)[C@H](N)CCCNC(=N)N)C(=O)O [Compound 24, D-Arg(D-βNal^7, Leu^8)desArg^9BK] (H-[dR]RPPGFS[d2Nal]L-OH; N-terminus and C-terminus assumed)
[1]
  Kb: 0.0501 µM
[2]
  G.P.I. pA2: Inactive
[3]
  Kb: 3.63 µM
[4]
  Human umbilical vein B2 receptor pA2: Inactive

## CC[C@H](C)[C@H](NC(=O)[C@@H](Cc1ccc2ccccc2c1)NC(=O)[C@H](CO)NC(=O)[C@H](Cc1ccccc1)NC(=O)CNC(=O)[C@@H]1CCCN1C(=O)[C@@H]1CCCN1C(=O)[C@H](CCCNC(=N)N)NC(=O)[C@H](CCCCN)NC(=O)CCCCCNC(=O)[C@H](Cc1ccc(O)cc1)NC(=O)CNC)C(=O)O [Compound 29, SarTyrεAhxLys(D-βNal^7, Ile^8)desArg^9BK] (H-[Sar]Y[Ahx]KRPPGFS[d2Nal]I-OH; N-terminus and C-terminus assumed)
[1]
  Kb: 0.00331 µM
[2]
  G.P.I. pA2: Inactive
[3]
  Kb: 6.31 µM
[4]
  Human umbilical vein B2 receptor pA2: Inactive

## CC[C@H](C)[C@H](NC(=O)[C@@H](Cc1ccc2ccccc2c1)NC(=O)[C@H](CO)NC(=O)[C@H](Cc1ccccc1)NC(=O)CNC(=O)[C@@H]1CCCN1C(=O)[C@@H]1CCCN1C(=O)[C@H](CCCNC(=N)N)NC(=O)[C@H](CCCCN)NC(=O)CCCCCNC(=O)[C@H](Cc1cc(I)c(O)c(I)c1)NC(=O)CNC)C(=O)O [Compound 30, SarTyr(3,5-I)εAhxLys(D-βNal^7, Ile^8)desArg^9BK] (H-[Sar][Tyr(3,5-I2)][Ahx]KRPPGFS[d2Nal]I-OH; N-terminus and C-terminus assumed)
[1]
  Kb: 0.00724 µM
[2]
  G.P.I. pA2: Inactive
[3]
  Kb: 7.41 µM
[4]
  Human umbilical vein B2 receptor pA2: Inactive

## N=C(N)NCCC[C@@H](N)C(=O)N[C@@H](CCCNC(=N)N)C(=O)N1CCC[C@H]1C(=O)N1C[C@H](O)C[C@H]1C(=O)NCC(=O)N[C@@H](Cc1cccs1)C(=O)N[C@@H](CO)C(=O)N1Cc2ccccc2C[C@@H]1C(=O)N1[C@H](C(=O)O)C[C@@H]2CCCC[C@@H]21 [Compound 31, D-Arg(Hyp^3, Thi^5, D-Tic^7, Oic^8)desArg^9BK, reference compound] (H-[dR]RP[Hyp]G[2Thi]S[dTic][Oic]-OH; N-terminus and C-terminus assumed)
[1]
  Kb: 0.158 µM
[2]
  Kb: > 7.59 µM
[3]
  Kb: 0.0417 µM
[4]
  Human umbilical vein B2 receptor pA2: Inactive
